Test results: PubChem BioAssay AID1963860 (Molecular Pharmacology Branch, DTP, NCI, 2024)

Test system: CN0375-F725-PDC KRAS spheroid viability
Assay: Anticancer human tumor CN0375-F725-PDC patient-derived colon carcinoma cell line growth inhibition [KRAS2]
Settings: spheroids with HUVEC and MSC; for IC50: curve of first compound; for viability, T/C: stronger effect = lower value
How it was run: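 Combination screen of spheroid viability in tumor-cell co-cultures with endothelial (HUVEC) and mesenchymal stem cell stroma. Each agent was tested in half-log dilutions, topping at clinical Cmax or at 10 microM without a known Cmax.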

[1] = second compound 0.1 µM, first compound 0.0316 µM
[2] = second compound 0.1 µM, first compound 0.1 µM
[3] = second compound 0.1 µM, first compound 0.316 µM
[4] = second compound 0.1 µM, first compound 1 µM
[5] = second compound 0.1 µM, first compound 3.16 µM
[6] = second compound 0.1 µM, first compound 10 µM
[7] = second compound 0.316 µM, first compound 0.0316 µM
[8] = second compound 0.316 µM, first compound 0.1 µM
[9] = second compound 0.316 µM, first compound 0.316 µM
[10] = second compound 0.316 µM, first compound 1 µM
[11] = second compound 0.316 µM, first compound 3.16 µM
[12] = second compound 0.316 µM, first compound 10 µM
[13] = second compound 1 µM, first compound 0.0316 µM
[14] = second compound 1 µM, first compound 0.1 µM
[15] = second compound 1 µM, first compound 0.316 µM
[16] = second compound 1 µM, first compound 1 µM
[17] = second compound 1 µM, first compound 3.16 µM
[18] = second compound 1 µM, first compound 10 µM
[19] = second compound 3.16 µM, first compound 0.0316 µM
[20] = second compound 3.16 µM, first compound 0.1 µM
[21] = second compound 3.16 µM, first compound 0.316 µM
[22] = second compound 3.16 µM, first compound 1 µM
[23] = second compound 3.16 µM, first compound 3.16 µM
[24] = second compound 3.16 µM, first compound 10 µM
[25] = second compound 10 µM, first compound 0.0316 µM
[26] = second compound 10 µM, first compound 0.1 µM
[27] = second compound 10 µM, first compound 0.316 µM
[28] = second compound 10 µM, first compound 1 µM
[29] = second compound 10 µM, first compound 3.16 µM
[30] = second compound 10 µM, first compound 10 µM
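Also: spheroids exposed to agents for 7 days.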

Compound	IC50 (second compound 0.1 µM) [µM]	IC50 (second compound 0.316 µM) [µM]	IC50 (second compound 1 µM) [µM]	IC50 (second compound 3.16 µM) [µM]	IC50 (second compound 10 µM) [µM]	viability, T/C [1] [%]	viability, T/C [2] [%]	viability, T/C [3] [%]	viability, T/C [4] [%]	viability, T/C [5] [%]	viability, T/C [6] [%]	viability, T/C [7] [%]	viability, T/C [8] [%]	viability, T/C [9] [%]	viability, T/C [10] [%]	viability, T/C [11] [%]	viability, T/C [12] [%]	viability, T/C [13] [%]	viability, T/C [14] [%]	viability, T/C [15] [%]	other results
COc1cc2nccc(Oc3ccc(NC(=O)C4(C(=O)Nc5ccc(F)cc5)CC4)cc3)c2cc1OC + COc1cc2nc(C)nc(NC(C)c3cc(N)cc(C(F)(F)F)c3)c2cc1OC1CCOC1	> 10	6.74	3.8	1.04	< 0.0316	102	99.5	89.8	79.3	56.6	59.6	100	96.6	90.2	74.8	52.6	48.7	88.4	91.6	83.8	viability, T/C [16]: 75%; viability, T/C [17]: 50.3%; viability, T/C [18]: 44.2%; viability, T/C [19]: 76.2%; viability, T/C [20]: 81.6%; viability, T/C [21]: 70.4%; viability, T/C [22]: 52.4%; viability, T/C [23]: 16.7%; viability, T/C [24]: 9.46%; viability, T/C [25]: 15.8%; viability, T/C [26]: 4.08%; viability, T/C [27]: 7.08%; viability, T/C [28]: 16.8%; viability, T/C [29]: 0.92%; viability, T/C [30]: 0.22%
O=C(c1cc(Cc2n[nH]c(=O)c3ccccc23)ccc1F)N1CCN(C(=O)C2CC2)CC1 + CC1OCC2(CCN(c3cnc(Sc4ccnc(N)c4Cl)c(N)n3)CC2)C1N	> 10	> 10	> 10	> 10	> 10	97.7	98.4	91.3	100	97.8	90	100	93.9	90.3	89.6	93	86.4	107	98.3	93.6	viability, T/C [16]: 92.6%; viability, T/C [17]: 97.6%; viability, T/C [18]: 93.9%; viability, T/C [19]: 83.4%; viability, T/C [20]: 82.2%; viability, T/C [21]: 82.5%; viability, T/C [22]: 80.7%; viability, T/C [23]: 80.7%; viability, T/C [24]: 76.4%; viability, T/C [25]: 79.9%; viability, T/C [26]: 83.6%; viability, T/C [27]: 106%; viability, T/C [28]: 77%; viability, T/C [29]: 71.4%; viability, T/C [30]: 71.1%
